In patent US7781452B2, “Imidazopyridine compound” (Eisai R&D Management Co., Ltd., priority 2004, dated 2010):
Values belong to the compound of their own block, whether it stands above or below them.

Columns and labels:
CYP1A1 = assay: Cytochrome P450 (CYP) gene induction in human cryopreserved hepatocytes, CYP1A1 mRNA; format: in vitro ADME; details: for CYP1A1 mRNA induction potency, % of the positive control (100%): 48-hr exposure
Description: (§1) Human cryopreserved hepatocytes purchased from In Vitro Technology were quickly thawed at 37° C. After ice-cold William's E (WE) medium supplemented with 10% FCS, penicillin (100 U/mL), streptomycin (100 μg/mL) and glutamine (2 mM) (WE medium) was gradually added to hepatocytes, the cells were centrifuged at 500 rpm for 5 min at 4° C. The supernatant was removed and the cells were resuspended in WE medium to obtain 5×10^5 cells/mL. The cells were plated into collagen-coated 48-well plates (1×10^5 cells/cm^2) and cultured at 37° C. and 5% CO2 for about 24 hr.
(§2) Medium was replaced with Hepato-STIM (trademark, BD Biosciences) supplemented with EGF, penicillin (100 U/mL), streptomycin (100 μg/mL) and glutamine (2 mM) (HS medium) and the cells were cultured for about 24 hr. At about 48 hr of culture after seeding, the cells were treated with the test compounds and β-naphtoflavone (β-NF, positive control for human CYP1A1 and CYP1A2, SIGMA) prepared by HS medium for about 48 hr. Medium was changed daily. The final concentration of β-NF was set to 10 μM. All compounds were dissolved in dimethylsulfoxide (DMSO, Wako), resulting in a final vehicle concentration of 0.1% (v/v). To the control cells, HS medium containing 0.1% DMSO was added.
(§3) After 48-hr exposure, cells were washed once using PBS, and total RNA was purified using Qiagen RNeasy Mini Kit (Qiagen) according to the manufacturer's instruction. Purified total RNA was then used as template for first strand cDNA synthesis. For reverse transcription (RT) reaction, Oligo dT was employed. The RT reaction was carried using TaqMan Reverse Transcription Reagents (Applied Biosystems) at 25° C. for 10 min followed by 60-min reaction at 48° C., and then the enzyme was inactivated at 95° C. for 5 min in Gene Amp PCR System 9700. The resulting cDNA was subjected to polymerase chain reaction (PCR) in ABI7700 Sequence Detection System (Applied Biosystems). For the mRNA analyses of CYP1A1 and GAPDH, SYBR Green PCR Core Reagents kit (Applied Biosystems) was used, and CYP1A2 mRNA was quantified using TaqMan PCR Core Reagents kit (Applied Biosystems).
(§4) The amount of mRNA of CYP1A1 or CYP1A2 was divided by that of GAPDH. Then, the ratio (fold) of the values obtained in test compounds (X) and positive control (P) against that in control was calculated. The induction potency of test compound (%) was obtained by following equation: Induction potency of test compound (%)=100×(X−1)/(P−1) <Results>

[1] = system: Gastric Acid Secretion in Rats; assay: Inhibitory effects on gastric acid secretion in pylorus-ligated, histamine-stimulated rats; format: in vivo, rat; details: male SD rats, 10 mg/kg into the duodenum, histamine 20 mg/kg subcutaneously, eight hours after administration
Description: Seven-week-old male SD rats fasted from the day before experiments were used. The rats were subjected to celiotomy along the median line under ether anesthesia, and the pylorus was ligated. Test compounds were dissolved or suspended in 0.5% methyl-cellulose solution (solvent) and prepared the concentration of 5 mg/ml. […] Then the abdomen was sutured. Eight hours after the administration of solvent or test compound, rat was sacrificed and stomach was isolated for the measurement of the volume of gastric juice. After the volume of gastric juice was determined, the acid concentration was measured using 0.25 ml of gastric juice by titration against 0.04 mol/l NaOH solution to pH 7.0. The acid output was calculated as (volume of gastric juice)×(acid concentration). The inhibition rate (%) was calculated according to the formula shown below. The number of animals of each experimental group is four. Inhibition rate (%)=100×(A−B)/A • A: acid output in solvent administered group • B: acid output in test compound administered group

CYP1A2 = assay: Cytochrome P450 (CYP) gene induction in human cryopreserved hepatocytes, CYP1A2 mRNA; format: in vitro ADME; details: for CYP1A2 mRNA induction potency, % of the positive control (100%): 48-hr exposure
Description: as §1, §2, §3, §4

[2] = 10 μM, normalised to GAPDH, vs 0.1% DMSO control

CYP1A1 mRNA induction potency, % of the positive control (100%) (CYP1A1; 0.3 μM): 2.03% | CYP1A1 mRNA induction potency, % of the positive control (100%) (CYP1A1; 1 μM): 8.02% | CYP1A1 mRNA induction potency, % of the positive control (100%) (CYP1A1; 3 μM): 11.27% | CYP1A1 mRNA induction potency, % of the positive control (100%) (CYP1A1; 10 μM): 18.46% | CYP1A2 mRNA induction potency, % of the positive control (100%) (CYP1A2; 0.3 μM): 8.36% | CYP1A2 mRNA induction potency, % of the positive control (100%) (CYP1A2; 1 μM): 12.16% | CYP1A2 mRNA induction potency, % of the positive control (100%) (CYP1A2; 3 μM): 11.78% | CYP1A2 mRNA induction potency, % of the positive control (100%) (CYP1A2; 10 μM): 29.18%
Compound: COc1ccnc(C[S+]([O-])c2nc3cc(C)c(OC)nc3[n-]2)c1C.[Na+] (stereo not drawn) [Example 1, 5-Methoxy-2-(((4-methoxy-3-methyl-2-pyridinyl)methyl)sulfinyl)-6-methyl-3H-imidazo[4,5-b]pyridineSodium salt]
Inhibition rate(%) of acid output [1]: 79%

Compound: COc1ccnc(C[S+]([O-])c2nc3cc(C)c(OCC(F)(F)F)nc3[n-]2)c1C.[Na+] (stereo not drawn) [Example 2, 2-(((4-Methoxy-3-methyl-2-pyridinyl)methyl]sulfinyl)-6-methyl-5-(2,2,2-trifluoroethoxy)-3H-imidazo[4,5-b]pyridine Sodium salt]
Inhibition rate(%) of acid output [1]: 86%

Compound: COc1ccnc(C[S+]([O-])c2nc3cc(C)c(OCC(F)F)nc3[n-]2)c1C.[Na+] (stereo not drawn) [Example 3, 5-(2,2-Difluoroethoxy)-2-(((4-methoxy-3-methyl-2-pyridinyl)methyl)sulfinyl)-6-methyl-3H-imidazo[4,5-b]pyridine Sodium salt]
Inhibition rate(%) of acid output [1]: 85%

CYP1A1 mRNA induction potency, % of the positive control (100%) (CYP1A1; 10 μM): 100% | CYP1A1 mRNA fold induction as compared with control (figures in parentheses) (CYP1A1; [2]): 79.97 fold | CYP1A2 mRNA induction potency, % of the positive control (100%) (CYP1A2; 10 μM): 100% | CYP1A2 mRNA fold induction as compared with control (figures in parentheses) (CYP1A2; [2]): 14.16 fold
Compound: O=c1cc(-c2ccccc2)oc2ccc3ccccc3c12 [βNF, β-naphtoflavone, reference compound]
